According to patent US9371336B2, “Compounds for treating spinal muscular atrophy” (PTC Therapeutics Inc., priority 2012, dated 2016):

Tests used:
[1] = system: SMN2 minigene mRNA (SMN2-A minigene construct); test: SMN2 minigene mRNA splicing RT-qPCR assay in cultured cells; format: cell-based, human; settings: Homo sapiens, HEK293-H; HEK293H cells stably transfected with SMN2-A minigene, 24 hours, 7-point concentration data; concentration giving 1.5-fold SMN2 full length mRNA relative to vehicle-treated cells; read-out: EC1.5x for production of full length SMN2 mRNA
Procedure: The reverse transcription-quantitative PCR-based (RT-qPCR) assay is used to quantify the level of the full length SMN2 minigene mRNA containing SMN2 exon 7 in a HEK293H cell line stably transfected with said minigene and treated with a test compound.
HEK293H cells stably transfected with the SMN2-A minigene construct described above (10,000 cells/well) are seeded in 200 μL of cell culture medium (DMEM plus 10% FBS, with 200 μg/mL hygromycin) in 96-well flat-bottom plates and the plate is immediately swirled to ensure proper dispersal of cells, forming an even monolayer of cells. Cells are allowed to attach for at least 4-6 hours. Test compounds are serially diluted 3.16-fold in 100% DMSO to generate a 7-point concentration curve. A solution of test compound (1 μL, 200× in DMSO) is added to each cell-containing well and the plate is incubated for 24 hours in a cell culture incubator (37° C., 5% CO2, 100% relative humidity). Two replicates are prepared for each test compound concentration. The cells are then lysed in Cells-To-Ct lysis buffer and the lysate is stored at −80° C.
Primer SMN Forward A (SEQ ID NO. 1) hybridizes to a nucleotide sequence in exon 7 (nucleotide 22 to nucleotide 40), primer SMN Reverse A (SEQ ID NO. 2) hybridizes to a nucleotide sequence in the coding sequence of Firefly luciferase, SMN Probe A (SEQ ID NO. 3) hybridizes to a nucleotide sequence in exon 7 (nucleotide 50 to nucleotide 54) and exon 8 (nucleotide 1 to nucleotide 21). The combination of these three oligonucleotides detects only SMN1 or SMN2 minigenes (RT-qPCR) and will not detect endogenous SMN1 or SMN2 genes.
The SMN forward and reverse primers are used at final concentrations of 0.4 μM. The SMN probe is used at a final concentration of 0.15 μM. The GAPDH primers are used at final concentrations of 0.2 μM and the probe at 0.15 μM.
The SMN2-minigene GAPDH mix (15 μL total volume) is prepared by combining 7.5 μL of 2×RT-PCR buffer, 0.4 μL of 25×RT-PCR enzyme mix, 0.75 μL of 20×GAPDH primer-probe mix, 4.0075 μL of water, 2 μL of 10-fold diluted cell lysate, 0.06 μL of 100 μM SMN forward primer, 0.06 μL of 100 μM SMN reverse primer, and 0.225 μL of 100 μM SMN probe.
PCR is carried out at the following temperatures for the indicated time: Step 1: 48° C. (15 min); Step 2: 95° C. (10 min); Step 3: 95° C. (15 sec); Step 4: 60° C. (1 min); then repeat Steps 3 and 4 for a total of 40 cycles.
Each reaction mixture contains both SMN2-A minigene and GAPDH primers/probe sets (multiplex design), allowing simultaneous measurement of the levels of two transcripts.
Two SMN spliced products are generated from the SMN2 minigene. The first spliced product containing exon 7, corresponding to SMN2 full length mRNA, is referred to herein using the term “SMN2 minigene FL.” The second spliced product lacking exon 7 is referred to herein using the term “SMN2 minigene Δ7.”
The increase of SMN2 minigene FL mRNA relative to that in cells treated with vehicle control is determined from real-time PCR data using a modified ΔΔCt method (as described in Livak and Schmittgen, Methods, 2001, 25:402-8). The amplification efficiency (E) is calculated from the slope of the amplification curve for SMN2 minigene FL and GAPDH individually. The abundances of SMN2 minigene FL and GAPDH are then calculated as (1+E)^−Ct, where Ct is the threshold value for each amplicon. The abundance of SMN2 minigene FL is normalized to GAPDH abundance. The normalized SMN2 minigene FL abundance from test compound-treated samples is then divided by normalized SMN2 minigene FL abundance from vehicle-treated cells to determine the level of SMN2 FL mRNA relative to vehicle control.

[2] = system: Smn protein; test: Smn protein assay (HTRF) in cultured cells (SMA patient fibroblasts GM03813); format: cell-based, human; settings: 48 hours; for EC1.5x for Smn protein expression: SMA patient fibroblast cells (GM03813), HTRF, 7-point concentration data, concentration producing 1.5 times Smn protein vs DMSO vehicle control; for maximum fold (Fold) increase of Smn protein: SMA patient fibroblast cells, 7-point concentration curve, relative to vehicle control
Procedure: The Smn HTRF (homogeneous time resolved fluorescence) assay is used to quantify the level of Smn protein in SMA patient fibroblast cells treated with test compounds.
Cells are thawed and cultured in DMEM-10% FBS for 72 hours. Cells are trypsinized, counted and re-suspended to a concentration of 25,000 cells/mL in DMEM-10% FBS. The cell suspension is plated at 5,000 cells per well in a 96 well microtiter plate and incubated for 3 to 5 hours. […] Test compounds are serially diluted 3.16-fold in 100% DMSO to generate a 7-point concentration curve. 1 μL of test compound solution is transferred to cell-containing wells and cells are incubated for 48 hours in a cell culture incubator (37° C., 5% CO2, 100% relative humidity). Triplicate samples are set up for each test compound concentration. After 48 hours, the supernatant is removed from the wells and 25 μL of the RIPA lysis buffer, containing protease inhibitors, is added to the wells and incubated with shaking at room temperature for 1 hour. 25 μL of the diluent is added and then 35 μL of the resulting lysate is transferred to a 384-well plate, where each well contains 5 μL of the antibody solution (1:100 dilution of anti-SMN d2 and anti-SMN kryptate in SMN reconstitution buffer). The plate is centrifuged for 1 minute to bring the solution to the bottom of the wells, then incubated overnight at room temperature. Fluorescence for each well of the plate at 665 nm and 620 nm is measured on an EnVision multilabel plate reader (Perkin-Elmer).
The normalized fluorescence signal is calculated for each sample, Blank and vehicle control well by dividing the signal at 665 nm by the signal at 620 nm. Normalizing the signal accounts for possible fluorescence quenching due to the matrix effect of the lysate. The ΔF value (a measurement of Smn protein abundance as a percent value) for each sample well is calculated by subtracting the normalized average fluorescence for the Blank control wells from the normalized fluorescence for each sample well, then dividing this difference by the normalized average fluorescence for the Blank control wells and multiplying the resulting value by 100. The ΔF value for each sample well represents the Smn protein abundance from test compound-treated samples. The ΔF value for each sample well is divided by the ΔF value for the vehicle control wells to calculate the fold increase in Smn protein abundance relative to the vehicle control.

SMILES	EC (1.5-fold) [1] [µM]	EC1.5x for Smn protein expression [2]	maximum fold (Fold) increase of Smn protein [2]
Cc1ccn2cc(-c3cc4ccc(N5CCNC[C@@H]5C)nc4oc3=O)nc2c1 [Cpd 59, 3-(7-methylimidazo[1,2-a]pyridin-2-yl)-7-[(2S)-2-methylpiperazin-1-yl]-2H-pyrano[2,3-b]pyridin-2-one]	≤ 0.1	**** (an EC1.5×≦0.3 μM is indicated by four stars (****))	**** (a fold increase between >1.5 and ≦1.65 is indicated by four stars (****))
C[C@H]1CNCCN1c1ccc2cc(-c3cn4cccc(F)c4n3)c(=O)oc2n1 [Cpd 63, 3-(8-fluoroimidazo[1,2-a]pyridin-2-yl)-7-[(2S)-2-methylpiperazin-1-yl]-2H-pyrano[2,3-b]pyridin-2-one]	≤ 0.1	**** (an EC1.5×≦0.3 μM is indicated by four stars (****))	**** (a fold increase between >1.5 and ≦1.65 is indicated by four stars (****))
C[C@H]1CN(c2ccc3cc(-c4cn5cccc(F)c5n4)c(=O)oc3n2)CCN1 [Cpd 64, 3-(8-fluoroimidazo[1,2-a]pyridin-2-yl)-7-[(3S)-3-methylpiperazin-1-yl]-2H-pyrano[2,3-b]pyridin-2-one]	≤ 0.1	**** (an EC1.5×≦0.3 μM is indicated by four stars (****))	**** (a fold increase between >1.5 and ≦1.65 is indicated by four stars (****))
Cc1ccc2nc(-c3cc4ccc(N5CCN[C@@H](C)C5)nc4oc3=O)cn2c1 [Cpd 72, 3-(6-methylimidazo[1,2-a]pyridin-2-yl)-7-[(3S)-3-methylpiperazin-1-yl]-2H-pyrano[2,3-b]pyridin-2-one]	≤ 0.1	**** (an EC1.5×≦0.3 μM is indicated by four stars (****))	**** (a fold increase between >1.5 and ≦1.65 is indicated by four stars (****))
Cc1ccc2nc(-c3cc4ccc(N5CCN[C@H](C)C5)nc4oc3=O)cn2c1 [Cpd 73, 3-(6-methylimidazo[1,2-a]pyridin-2-yl)-7-[(3R)-3-methylpiperazin-1-yl]-2H-pyrano[2,3-b]pyridin-2-one]	0.1 to 0.3	** (an EC1.5× between >1 and ≦3 μM is indicated by two stars (**))	*** (a fold increase between >1.35 and ≦1.5 is indicated by three stars (***))
C[C@H]1CN(c2ccc3cc(-c4cn5ccccc5n4)c(=O)oc3n2)CCN1.Cl [Cpd 79, 3-(imidazo[1,2-a]pyridin-2-yl)-7-[(3S)-3-methylpiperazin-1-yl]-2H-pyrano[2,3-b]pyridin-2-one hydrochloride]	≤ 0.1	**** (an EC1.5×≦0.3 μM is indicated by four stars (****))	***** (a fold increase >1.65 is indicated by five stars (*****))
C[C@@H]1CN(c2ccc3cc(-c4cn5ccccc5n4)c(=O)oc3n2)CCN1.Cl [Cpd 80, 3-(imidazo[1,2-a]pyridin-2-yl)-7-[(3R)-3-methylpiperazin-1-yl]-2H-pyrano[2,3-b]pyridin-2-one hydrochloride]	≤ 0.1	**** (an EC1.5×≦0.3 μM is indicated by four stars (****))	**** (a fold increase between >1.5 and ≦1.65 is indicated by four stars (****))
C[C@H]1CN(c2ccc3cc(-c4cn5ccsc5n4)c(=O)oc3n2)CCN1.Cl [Cpd 83, 3-(imidazo[2,1-b][1,3]thiazol-6-yl)-7-[(3S)-3-methylpiperazin-1-yl]-2H-pyrano[2,3-b]pyridin-2-one hydrochloride]	≤ 0.1	**** (an EC1.5×≦0.3 μM is indicated by four stars (****))	**** (a fold increase between >1.5 and ≦1.65 is indicated by four stars (****))
C[C@@H]1CN(c2ccc3cc(-c4cn5ccsc5n4)c(=O)oc3n2)CCN1.Cl [Cpd 84, 3-(imidazo[2,1-b][1,3]thiazol-6-yl)-7-[(3R)-3-methylpiperazin-1-yl]-2H-pyrano[2,3-b]pyridin-2-one hydrochloride]	≤ 0.1	**** (an EC1.5×≦0.3 μM is indicated by four stars (****))	***** (a fold increase >1.65 is indicated by five stars (*****))
Cc1ccn2cc(-c3cc4ccc(N5C[C@H](C)NC[C@H]5C)nc4oc3=O)nc2c1 [Cpd 88, 7-[(2R,5S)-2,5-dimethylpiperazin-1-yl]-3-(7-methylimidazo[1,2-a]pyridin-2-yl)-2H-pyrano[2,3-b]pyridin-2-one]	≤ 0.1	**** (an EC1.5×≦0.3 μM is indicated by four stars (****))	**** (a fold increase between >1.5 and ≦1.65 is indicated by four stars (****))
Cc1ccc2nc(-c3cc4ccc(N5C[C@H](C)N(C)C[C@H]5C)nc4oc3=O)cn2c1 [Cpd 93, 3-(6-methylimidazo[1,2-a]pyridin-2-yl)-7-[(2R,5S)-2,4,5-trimethylpiperazin-1-yl]-2H-pyrano[2,3-b]pyridin-2-one]	0.3 to 1	–	*** (a fold increase between >1.35 and ≦1.5 is indicated by three stars (***))
Cc1cn2cc(-c3cc4ccc(N5C[C@H](C)NC[C@H]5C)nc4oc3=O)nc2cn1 [Cpd 102, 7-[(2R,5S)-2,5-dimethylpiperazin-1-yl]-3-(6-methylimidazo[1,2-a]pyrazin-2-yl)-2H-pyrano[2,3-b]pyridin-2-one]	≤ 0.1	**** (an EC1.5×≦0.3 μM is indicated by four stars (****))	***** (a fold increase >1.65 is indicated by five stars (*****))
